The data set concerns ovine sepsis induced by intravenous infusion of live E. coli. From the text: Using this model, the inventors have investigated the effect of mega dose intravenous vitamin C therapy on various parameters indicative of the progression of sepsis in sheep (Merino ewes, 35-45 kg; 1.5-2.0 years old). Sheep were divided into two groups, a vitamin C (sodium ascorbate) therapy group and a vehicle group as a control. Experimental protocols were approved by the Animal Ethics Committee of the Florey Institute of Neuroscience and Mental Health under guidelines of the National Health and Medical Research Council of Australia.
Preparatory surgical procedures were carried out as described in Lankadeva et al. (2018b). Briefly, two preparatory surgical procedures were performed under general anaesthesia. First, a carotid artery was exteriorised into a skin fold to form a carotid arterial loop to facilitate cannulation for measurement of arterial pressure and heart rate, and for blood sampling. During the same surgical procedure, a flow probe was placed around the pulmonary artery to measure cardiac output. Animals were allowed 3-4 weeks of recovery. Second, a flow probe was implanted around a renal artery to measure renal blood flow, a renal vein was cannulated for blood sampling and fibre optic probes were inserted into the renal cortex, renal medulla (within kidneys) and parietal cortex (brain) to measure tissue perfusion, oxygen tension and temperature.
During the second surgical procedure cannulae were implanted in the carotid artery for arterial pressure measurement and blood sampling and the jugular vein for infusion of fluids, vasopressors, Escherichia coli, sodium ascorbate and blood sampling, and a Foley catheter was inserted into the bladder to collect urine and monitor hourly urine output.
Following three days of recovery from the second surgical procedure, the experimental protocol (see FIG. 1) was initiated in conscious sheep, to avoid the confounding effects of general anaesthesia. Animals daily food and water intake and urine output was measured on a 24-hour basis during the course of the 5-day protocol.
First, a 24-hour baseline period was commenced, which included measurement of systemic haemodynamics, renal and brain perfusion and oxygenation, arterial, central venous and renal venous blood gases and lactate, and urine output. Arterial blood and urine samples were collected at set times during the experimental period.
After establishment of the 24-hour baseline period, gram-negative sepsis was induced by intravenous infusion of live E. coli (isolated from a patient with sepsis at Austin Health) as described in Lankadeva et al. (2018b), administered as a loading (bolus) infusion of 2.8×10^9 colony-forming units (CFU) over 30-minutes followed by a continuous infusion of 1.26×10^9 CFU/h for 30.5 hours. No prophylactic antibiotics, sedative or analgesic agents were administered during this protocol. The description in the following paragraphs is with reference to the protocol as shown schematically in FIG. 1.
At 23 hours of sepsis, when sheep had fulfilled the clinical criteria for sepsis (i.e. established hypotension, tachycardia, fever, lung injury, tachypnoea, hyperlactatemia and stage 1-2 acute kidney injury) animals were resuscitated with 30 mL/kg balanced crystalloid sodium lactate (Hartmann's solution infused at approximately 2500 ml/hr) for 30 mins, from 23-23.5 hours of sepsis.
A blocked randomization design was used to allocate sheep to treatment with sodium ascorbate or vehicle.

The mark [1] stands for this setting: NaHCO3 infusion, two septic sheep.
Setting [2] is: during the infusion of NaHCO3, two septic sheep.

`O=C([O-])O.[Na+]` [NaHCO3, sodium bicarbonate]: under setting [1], the MAP entry is “decreased”, the RBF entry is recorded as “not reduced”, the “arterial PO2” value is listed as “no improvement” and the “blood pH” value is listed as “large increase”. Also, under setting [1], the blood potassium result was “hypokalemia”, the blood sodium entry is recorded as “hypernatremia”, the creatinine clearance entry is “no reduction in plasma creatinine or increase in creatinine clearance was observed” and the heart rate entry is “not reduced”. Further, under setting [1], the norepinephrine dose required result is reported as “increasing doses of norepinephrine were required”, the plasma creatinine entry was “no reduction”, the “renal medullary PO2” value is “no improvement” and the renal medullary perfusion result is recorded as “no improvement”. Under setting [1], the urine flow result is listed as “urine flow increased”. Besides, under setting [2], the body temperature result is “large increases” and the shivering entry is “intermittent shivering”. For the same compound, the “reproduction of the effects of sodium ascorbate” value (hypertonic NaHCO3, equal sodium load, 8.4 g/kg over 30 minutes then 8.4 g/kg/hr for 6.5 hours, two septic sheep, data not shown) was “did not reproduce the effects of sodium ascorbate”.

Values taken from patent US20230136075A1, “TREATMENT FOR SEPSIS-INDUCED ORGAN DYSFUNCTION” (The Florey Institute of Neuroscience and Mental Health, priority 2020, published 2023).
